Test: Peptide was evaluated for inhibition in competitive ELISA at a concentration of 1 mM using casein phosphopeptide alpha s1-casein (59-79) as the adsorbed antigen

Compound	inhibition
CC[C@H](C)[C@H](NC(=O)[C@H](COP(=O)(Oc1ccccc1)Oc1ccccc1)NC(=O)[C@H](CCC(=O)O)NC(=O)[C@H](C)NC(=O)[C@@H](N)CCC(=O)O)C(=O)NC	10.9%
CC[C@H](C)[C@H](N)C(=O)N[C@H](C(=O)N1CCC[C@@H]1C(=O)N[C@@H](CC(N)=O)C(=O)N[C@@H](COP(=O)(Oc1ccccc1)Oc1ccccc1)C(=O)N[C@H](C(=O)N[C@@H](CCC(=O)O)C(=O)N[C@@H](CCC(=O)O)C(=O)NC)C(C)C)C(C)C	60.3%

Results, then the compound that gave them:

inhibition	Compound
10%	H-QMEAE-OH
12%	CC[C@H](C)[C@H](N)C(=O)N[C@H](C(=O)N1CCC[C@@H]1C(=O)N[C@@H](CC(N)=O)C(=O)N[C@@H](CO)C(=O)N[C@H](C(=O)N[C@@H](CCC(=O)O)C(=O)N[C@@H](CCC(=O)O)C(=O)NC)C(C)C)C(C)C
10.8%	CC[C@H](C)[C@H](NC(=O)[C@H](CCC(=O)O)NC(=O)[C@@H](N)CCC(=O)O)C(=O)N[C@H](C(=O)N1CCC[C@@H]1C(=O)N[C@@H](CC(N)=O)C(=O)O)C(C)C
20%	CC[C@H](C)[C@H](NC(=O)[C@H](COP(=O)(Oc1ccccc1)Oc1ccccc1)NC(=O)[C@H](CCC(=O)O)NC(C)=O)C(=O)N[C@@H](COP(=O)(Oc1ccccc1)Oc1ccccc1)C(=O)N[C@@H](COP(=O)(Oc1ccccc1)Oc1ccccc1)C(=O)N[C@@H](COP(=O)(Oc1ccccc1)Oc1ccccc1)C(=O)N[C@@H](CCC(=O)O)C(=O)NC(CCC(=O)O)C(=O)NC (stereo partly specified)

— ChEMBL document CHEMBL1126460, “The use of synthetic phosphopeptides for epitope mapping of the s1-casein phosphopeptide segment 5979” (Bioorg Med Chem Lett, 1992)
